Assay results: patent publication US20230090742A1, “AMINOPYRIMIDINYLAMINOBENZONITRILE DERIVATIVES AS NEK2 INHIBITORS” (Sumitomo Pharma Oncology, Inc., priority 2020, published 2023)
pIC50: −log10 of the molar value.

Molecular target: T1, NEK2 kinase (Accession No. NP-002488) (Homo sapiens, UniProt P51955)
T1 construct: purchased ThermoFisher Scientific (Invitrogen)
T1 sequence (P51955 1-445): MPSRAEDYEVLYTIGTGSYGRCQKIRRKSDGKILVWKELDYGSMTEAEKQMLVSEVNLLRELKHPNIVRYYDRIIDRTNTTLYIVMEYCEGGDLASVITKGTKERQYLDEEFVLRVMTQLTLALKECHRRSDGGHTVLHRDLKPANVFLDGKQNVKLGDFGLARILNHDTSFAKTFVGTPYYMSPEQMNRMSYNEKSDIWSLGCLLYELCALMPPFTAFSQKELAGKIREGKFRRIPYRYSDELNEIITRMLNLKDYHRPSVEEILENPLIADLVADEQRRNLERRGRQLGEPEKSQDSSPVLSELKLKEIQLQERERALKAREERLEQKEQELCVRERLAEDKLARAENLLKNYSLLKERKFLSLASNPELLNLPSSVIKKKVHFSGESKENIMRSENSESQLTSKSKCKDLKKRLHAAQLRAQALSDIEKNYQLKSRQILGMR
Assay: HotSpot Kinase Assay, NEK2
Type: biochemical
Conditions: HotSpot Kinase Assay; read-out: NEK2 IC50
Protocol: In this example, the compounds described herein were tested for their inhibitory activity against NEK2 and/or Aurora A using the HotSpot™ Kinase Assay (Reaction Biology Corp.). The assay was performed according to the manufacturer's protocol, as detailed below. The NEK2 kinase (Accession No. NP-002488) and Aurora A kinase (Accession No. NP-940839) for use in these assays was sourced from ThermoFisher Scientific (Invitrogen).
The base Reaction Buffer used in this experiment contained the following: 20 mM Hepes (pH 7.5), 10 mM MgCl2, 1 mM EGTA, 0.02% Brij™-35, 0.02 mg/ml BSA, 0.1 mM Na3VO4, 2 mM DTT, and 1% DMSO. The required cofactors were added individually to each kinase reaction.
Testing compounds were dissolved in 100% DMSO to a specific concentration. The serial dilution was conducted by Integra Viaflo Assist in DMSO.
The substrate was prepared in freshly prepared Reaction Buffer. The required cofactors were delivered to the substrate solution described above. NEK2 kinase or Aurora A kinase was delivered to the substrate solution and gently mixed. Next, the compounds in 100% DMSO were transferred to the kinase reaction mixture by Acoustic technology (Echo550; nanoliter range) and incubated for 20 min at room temperature. ^33P-ATP (Specific activity 10 μCi/μl) was delivered into the reaction mixture to initiate the reaction. The reaction was incubated for 2 hours at room temperature. Radioactivity was then detected by the filter-binding method. Kinase activity data were expressed as the percent remaining kinase activity in test samples compared to vehicle (dimethyl sulfoxide) reactions. IC50 values and curve fits were obtained using Prism (GraphPad Software).

pIC50: ≥ 8.30
Structure (SMILES): N#Cc1c(Nc2nc(Nc3ccc(N4CCNCC4)cc3)ncc2Cl)cccc1OCc1ccccc1F [Compound 16, 2-((5-chloro-2-((4-(piperazin-1-yl)phenyl)amino)pyrimidin-4-yl)amino)-6-((2-fluorobenzyl)oxy)benzonitrile]
